Measurements published in patent US6380263B1, “6-substituted pyrimidine 3-oxides for promoting pigmentation of the skin/hair” (Societe L'Oreal, priority 1996, dated 2002).

test system: purified fungal tyrosinase (EC 1.14.18.1); test: Modulation of tyrosinase activity (dopachrome formation from L-tyrosine, spectrophotometry at 475 nm); format: biochemical; conditions: 100 μl of 1 mM derivative solution (PBS/1% ethanol) in 1000 μl mixture; substrate L-tyrosine; 37° C.; at least 30 minutes
Procedure: In order to determine the activity of the pyrimidine derivatives substituted in position 6, the simple and rapid technique is employed that entails measurement by incubating an optionally purified tyrosinase and one of its substrates in a suitable medium in the presence of a test compound, and then comparing the measurements taken with the results of identical measurements taken during the incubation of optionally purified tyrosinase with one of its substrates in the absence of the test compound.
A purified tyrosinase was incubated in the presence of one of its substrates in a suitable medium, in the presence or absence of a pyrimidine 3-oxide derivative, substituted in position 6. The activity of the enzyme was evaluated by measuring the amount of a product of conversion of the substrate formed during the reaction. The result obtained in the presence of a derivative was compared with the result obtained in the absence of a derivative.
The substrate used was L-tyrosine (marketed by Sigma), a stock solution of which was prepared in phosphate-buffered saline (PBS) at a concentration of 0.5 mM.
The enzyme used was a purified fungal tyrosinase (EC 1.14.18.1) marketed by Sigma. A stock solution of this enzyme was prepared in PBS at a concentration of 5 mg/ml, which represents a concentration of about 19,500 international units of tyrosinase per milliliter.
The product of conversion of the tyrosine by tyrosinase, dopachrome, was measured by spectrophotometry at a wavelength of 475 nm using a Perkin Elmer type apparatus.
The derivative to be tested was prepared in solution in PBS containing 1% ethanol at a concentration of 1 mM.
The following reagents were mixed together in a spectrophotometer cell:
500 μl of tyrosine solution,
390 μl of phosphate buffer,
10 μl of fungal tyrosinase solution,
100 μl of solution of test derivative or of PBS/1% ethanol (control).
The mixture was then incubated at a temperature of 37° C. and the dopachrome formed was measured continuously for at least 30 minutes.
The results obtained are expressed as a % of activation of the tyrosinase activity relative to the value obtained with the control (in the absence of derivative).

| Structure (SMILES) | Activation (% of activation of the tyrosinase activity relative to the control) [%] |
| --- | --- |
| CNc1cc(N(C)C)nc(NC)[n+]1[O-] [2,4-bis-methylamino-6-dimethylaminopyrimidine 3-oxide] | 61 |
| CCCNc1cc(N(C)C)nc(NCCC)[n+]1[O-] [2,4-bis-propylamino-6-dimethylaminopyrimidine 3-oxide] | 55 |
| CCCNc1cc(N2CCCCC2)nc(NCCC)[n+]1[O-] [2,4-bis-propylamino-6-piperidinopyrimidine 3-oxide] | 57 |
| Nc1nc(N2CCCCC2)cc(NCc2ccccc2)[n+]1[O-] [2-amino-4-benzylamino-6-piperidinopyrimidine 3-oxide] | 45 |
| CCCCNc1cc(N(C)C)nc(N)[n+]1[O-] [2-amino-4-butylamino-6-dimethylaminopyrimidine 3-oxide] | 51 |
| CCCCCCNc1cc(N2CCCCC2)nc(N)[n+]1[O-] [2-amino-4-hexylamino-6-piperidinopyrimidine 3-oxide] | 47 |
| CC(C)Nc1cc(N(C)C)nc(N)[n+]1[O-] [2-amino-4-isopropylamino-6-dimethylaminopyrimidine 3-oxide] | 46 |
| CCCNc1cc(N(C)C)nc(N)[n+]1[O-] [2-amino-4-propylamino-6-dimethylaminopyrimidine 3-oxide] | 50 |
| Nc1cc(N2CCCCC2)nc(N)[n+]1[O-] [Minoxidil, 2,4-diamino-6-piperidinopyrimidine 3-oxide, reference compound] | 41 |

More lines, now with the values ahead:

| Activation (% of activation of the tyrosinase activity relative to the control) [%] | Structure (SMILES) |
| --- | --- |
| 60 | CCNc1cc(N(C)C)nc(NCC)[n+]1[O-] [2,4-bis-ethylamino-6-dimethylaminopyrimidine 3-oxide] |
| 43 | Nc1nc(N2CCCCC2)cc(NCCO)[n+]1[O-] [2-amino-4-(2-hydroxyethylamino)-6-piperidinopyrimidine 3-oxide] |
| 50 | CNc1cc(N2CCCCC2)nc(N)[n+]1[O-] [2-amino-4-methylamino-6-piperidinopyrimidine 3-oxide] |
| 46 | CCCNc1cc(N2CCCCC2)nc(N)[n+]1[O-] [2-amino-4-propylamino-6-piperidinopyrimidine 3-oxide] |

test system: hair pigmentation; test: not given; conditions: bald men treated with this compound; cited from earlier work

| Structure (SMILES) | effect on hair pigmentation |
| --- | --- |
| Nc1cc(N2CCCCC2)nc(N)[n+]1[O-] [Minoxidil, 2,4-diamino-6-piperidinopyrimidine 3-oxide, reference compound] | stimulatory effect on hair pigmentation |
